Reference: patent publication EP2951180B1, “2,6,7,8 SUBSTITUTED PURINES AS HDM2 INHIBITORS” (Merck Sharp & Dohme Corp., priority 2013, dated 2014)

The compounds below were run against T1, HDM2 (Homo sapiens, UniProt Q00987) (assay: HDM2 FRET assay (inhibition of binding of FITC labeled p53-pocket peptide to HDM2)). Conditions: FRET IC50.
T1 construct: Thioredoxin (N); made in house; host or cells: E. coli strain BL21(DE3)Rosetta
T1 sequence (Q00987 17-125): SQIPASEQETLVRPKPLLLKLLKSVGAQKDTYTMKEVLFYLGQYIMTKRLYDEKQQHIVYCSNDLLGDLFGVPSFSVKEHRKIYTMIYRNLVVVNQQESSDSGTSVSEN
Procedure, shortened: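 Signal is read as the 520/495 nm emission ratio and converted to percent inhibition; nonlinear sigmoidal regression yields IC50. The assay mixes HDM2 (0.5 nM), FITC-p53 peptide (3 nM) and Tb anti-His antibody (0.25 nM) at 0.1% DMSO.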
For C[C@@H](Nc1nc(C(=O)O)nc2nc(N3C4CCCC3CC4)n(C[C@H]3CC[C@H](C)CC3)c12)C1CCC1 [Example 11.26, 8-(8-azabicyclo[3.2.1]oct-8-yl)-6-{[(1R)-1-cyclobutylethyl]amino}-7-[(trans-4-methylcyclohexyl)methyl]-7H-purine-2-carboxylic acid], the IC50 was 3.57 nM.

Same assay, conditions: Table 11; read-out: FRET IC50
For C[C@H]1CC[C@H](Cn2c(N3CCOC[C@H]3c3ccccc3)nc3nc(-c4noc(=O)[nH]4)nc(N4CC[C@@H]4C4CCC4)c32)CC1 [Example 11.9, 3-(6-((R)-2-Cyclobutylazetidin-1-yl)-7-((trans-4-methylcyclohexyl)methyl)-8-((R)-3-phenylmorpholino)-7H-purin-2-yl)-1,2,4-oxadiazol-5(4H)-one], the IC50 was 27.3 nM.
C[C@@H](Nc1nc(C(=O)O)nc2nc(N3CCOC[C@H]3c3ccccc3)n(C[C@H]3CC[C@H](C)CC3)c12)C1CCC1 [Example 11.10, 6-{[(1R)-1-cyclobutylethyl]amino}-7-[(trans-4-methylcyclohexyl)methyl]-8-[(3R)-3-phenylmorpholin-4-yl]-7H-purine-2-carboxylic acid] gave an IC50 of 0.202 nM.
C[C@@H](Nc1nc(-c2noc(=O)[nH]2)nc2nc(N3CCOC[C@H]3c3ccccc3)n(C[C@H]3CC[C@H](C)CC3)c12)C1CCC1 [Example 11.11, 3-(6-{[(1R)-1-cyclobutylethyl]amino}-7-[(trans-4-methylcyclohexyl)methyl]-8-[(3R)-3-phenylmorpholin-4-yl]-7H-purin-2-yl)-1,2,4-oxadiazol-5(4H)-one] was tested, and the IC50 was 0.626 nM.
With C[C@@H](Nc1nc(C(=O)O)nc2nc(N3CCCC[C@@H]3c3ccccc3)n(C[C@H]3CC[C@H](C)CC3)c12)C1CCC1 [Example 11.12, 6-{[(1R)-1-cyclobutylethyl]amino}-7-[(trans-4-methylcyclohexyl)methyl]-8-[(2R)-2-phenylpiperidin-1-yl]-7H-purine-2-carboxylic acid] the IC50 was 2.82 nM.
C[C@@H](Nc1nc(-c2noc(=O)[nH]2)nc2nc(N3CCCC[C@@H]3c3ccccc3)n(C[C@H]3CC[C@H](C)CC3)c12)C1CCC1 [Example 11.13, 3-(6-{[(1R)-1-cyclobutylethyl]amino}-7-[(trans-4-methylcyclohexyl)methyl]-8-[(2R)-2-phenylpiperidin-1-yl]-7H-purin-2-yl)-1,2,4-oxadiazol-5(4H)-one] gave an IC50 of 26.7 nM.
Work on C[C@@H](Nc1nc(C(=O)O)nc2nc(N3CCCC[C@H]3c3ccccc3)n(C[C@H]3CC[C@H](C)CC3)c12)C1CCC1 [Example 11.14, 6-{[(1R)-1-cyclobutylethyl]amino}-7-[(trans-4-methylcyclohexyl)methyl]-8-[(2S)-2-phenylpiperidin-1-yl]-7H-purine-2-carboxylic acid] yielded an IC50 of 0.381 nM.
Work on C[C@@H](Nc1nc(-c2noc(=O)[nH]2)nc2nc(N3CCCC[C@H]3c3ccccc3)n(C[C@H]3CC[C@H](C)CC3)c12)C1CCC1 [Example 11.15, 3-(6-{[(1R)-1-cyclobutylethyl]amino}-7-[(trans-4-methylcyclohexyl)methyl]-8-[(2S)-2-phenylpiperidin-1-yl]-7H-purin-2-yl)-1,2,4-oxadiazol-5(4H)-one] yielded an IC50 of 2.81 nM.
For C[C@@H](Nc1nc(C(=O)O)nc2nc(N3CCCCC3c3cccc(F)c3)n(C[C@H]3CC[C@H](C)CC3)c12)C1CCC1 (stereo partly drawn) [Example 11.16, 6-{[(1R)-1-cyclobutylethyl]amino}-8-[2-(3-fluorophenyl)piperidin-1-yl]-7-[(trans-4-methylcyclohexyl)methyl]-7H-purine-2-carboxylic acid], the IC50 was 2.84 nM.
In the case of C[C@@H](Nc1nc(C(=O)O)nc2nc(N3CCc4ccccc4C3)n(C[C@H]3CC[C@H](C)CC3)c12)C1CCC1 [Example 11.17, 6-{[(1R)-1-cyclobutylethyl]amino}-8-(3,4-dihydroisoquinolin-2(1H)-yl)-7-[(trans-4-methylcyclohexyl)methyl]-7H-purine-2-carboxylic acid], the IC50 is reported as 17.9 nM.
C[C@@H](Nc1nc(C(=O)O)nc2nc(N3CCCCC3c3ccc(F)cc3)n(C[C@H]3CC[C@H](C)CC3)c12)C1CCC1 (stereo partly drawn) [Example 11.18, 6-{[(1R)-1-cyclobutylethyl]amino}-8-[2-(4-fluorophenyl)piperidin-1-yl]-7-[(trans-4-methylcyclohexyl)methyl]-7H-purine-2-carboxylic acid] gave an IC50 of 4.42 nM.
With C[C@@H](Nc1nc(C(=O)O)nc2nc(N3CCCCC3c3cccnc3)n(C[C@H]3CC[C@H](C)CC3)c12)C1CCC1 (stereo partly drawn) [Example 11.19, 6-{[(1R)-1-cyclobutylethyl]amino}-7-[(trans-4-methylcyclohexyl)methyl]-8-(2-pyridin-3-ylpiperidin-1-yl)-7H-purine-2-carboxylic acid] the IC50 was 0.895 nM.
Compound C[C@@H](Nc1nc(C(=O)O)nc2nc(N3CCCC4CCCCC43)n(C[C@H]3CC[C@H](C)CC3)c12)C1CCC1 (stereo partly drawn) [Example 11.20, 6-{[(1R)-1-cyclobutylethyl]amino}-7-[(trans-4-methylcyclohexyl)methyl]-8-(octahydroquinolin-1(2H)-yl)-7H-purine-2-carboxylic acid] has an IC50 of 1.34 nM.
C[C@@H](Nc1nc(C(=O)O)nc2nc(N3CCCCC3c3ccccn3)n(C[C@H]3CC[C@H](C)CC3)c12)C1CCC1 (stereo partly drawn) [Example 11.21, 6-{[(1R)-1-cyclobutylethyl]amino}-7-[(trans-4-methylcyclohexyl)methyl]-8-(2-pyridin-2-ylpiperidin-1-yl)-7H-purine-2-carboxylic acid] showed an IC50 of 2.72 nM.
Work on C[C@@H](Nc1nc(C(=O)O)nc2nc(N3CCC4CCCCC4C3)n(C[C@H]3CC[C@H](C)CC3)c12)C1CCC1 (stereo partly drawn) [Example 11.22, 6-{[(1R)-1-cyclobutylethyl]amino}-7-[(trans-4-methylcyclohexyl)methyl]-8-(octahydroisoquinolin-2(1H)-yl)-7H-purine-2-carboxylic acid] yielded an IC50 of 18 nM.
In the case of C[C@@H](Nc1nc(C(=O)O)nc2nc(N3CCCC4CCCCC43)n(C[C@H]3CC[C@H](C)CC3)c12)C1CCC1 (stereo partly drawn) [Example 11.23, 6-{[(1R)-1-cyclobutylethyl]amino}-7-[(trans-4-methylcyclohexyl)methyl]-8-(octahydroquinolin-1(2H)-yl)-7H-purine-2-carboxylic acid], the IC50 is reported as 3.11 nM.
C[C@@H](Nc1nc(C(=O)O)nc2nc(N3CCCC3c3cccc(F)c3)n(C[C@H]3CC[C@H](C)CC3)c12)C1CCC1 (stereo partly drawn) [Example 11.28, 6-{[(1R)-1-cyclobutylethyl]amino}-8-[2-(3-fluorophenyl)pyrrolidin-1-yl]-7-[(trans-4-methylcyclohexyl)methyl]-7H-purine-2-carboxylic acid] gave an IC50 of 1.52 nM.
With CC1CCCCN1c1nc2nc(C(=O)O)nc(N[C@H](C)C3CCC3)c2n1C[C@H]1CC[C@H](C)CC1 (stereo partly drawn) [Example 11.29, 6-{[(1R)-1-cyclobutylethyl]amino}-7-[(trans-4-methylcyclohexyl)methyl]-8-(2-methylpiperidin-1-yl)-7H-purine-2-carboxylic acid] the IC50 was 2.23 nM.
Work on CC(C)CN(C)c1nc2nc(C(=O)O)nc(N[C@H](C)C3CCC3)c2n1C[C@H]1CC[C@H](C)CC1 [Example 11.30, 6-{[(1R)-1-cyclobutylethyl]amino}-7-[(trans-4-methylcyclohexyl)methyl]-8-[methyl(2-methylpropyl)amino] -7H-purine-2-carboxylic acid] yielded an IC50 of 1.65 nM.
COc1cccc(C2CCCCN2c2nc3nc(C(=O)O)nc(N[C@H](C)C4CCC4)c3n2C[C@H]2CC[C@H](C)CC2)c1 (stereo partly drawn) [Example 11.31, 6-{[(1R)-1-cyclobutylethyl]amino}-8-[2-(3-methoxyphenyl)piperidin-1-yl]-7-[(trans-4-methylcyclohexyl)methyl]-7H-purine-2-carboxylic acid] gave an IC50 of 2.26 nM.
CCOCC1CCCN1c1nc2nc(-c3noc(=O)[nH]3)nc(N[C@H](C)C3CCC3)c2n1C[C@H]1CC[C@H](C)CC1 (stereo partly drawn) [Example 11.32, 3-(6-{[(1R)-1-cyclobutylethyl]amino}-8-[2-(ethoxymethyl)pyrrolidin-1-yl]-7-[(trans-4-methylcyclohexyl)methyl]-7H-purin-2-yl)-1,2,4-oxadiazol-5(2H)-one] gave an IC50 of 8 nM.
CCC1CCCN1c1nc2nc(-c3noc(=O)[nH]3)nc(N[C@H](C)C3CCC3)c2n1C[C@H]1CC[C@H](C)CC1 (stereo partly drawn) [Example 11.33, 3-(6-{[(1R)-1-cyclobutylethyl]amino}-8-(2-ethylpyrrolidin-1-yl)-7-[(trans-4-methylcyclohexyl)methyl]-7H-purin-2-yl)-1,2,4-oxadiazol-5(2H)-one] was tested, and the IC50 was 5.37 nM.
CC1CCCN1c1nc2nc(-c3noc(=O)[nH]3)nc(N[C@H](C)C3CCC3)c2n1C[C@H]1CC[C@H](C)CC1 (stereo partly drawn) [Example 11.34, 3-[6-{[(1R)-1-cyclobutylethyl]amino}-7-[(trans-4-methylcyclohexyl)methyl]-8-(2-methylpyrrolidin-1-yl)-7H-purin-2-yl]-1,2,4-oxadiazol-5(2H)-one] was tested, and the IC50 was 25.4 nM.
In the case of CCCC1CCCN1c1nc2nc(-c3noc(=O)[nH]3)nc(N[C@H](C)C3CCC3)c2n1C[C@H]1CC[C@H](C)CC1 (stereo partly drawn) [Example 11.35, 3-[6-{[(1R)-1-cyclobutylethyl]amino}-7-[(trans-4-methylcyclohexyl)methyl]-8-(2-propylpyrrolidin-1-yl)-7H-purin-2-yl]-1,2,4-oxadiazol-5(2H)-one], the IC50 is reported as 4.4 nM.
C[C@@H](Nc1nc(-c2noc(=O)[nH]2)nc2nc(N3CCCC3C(C)(C)C)n(C[C@H]3CC[C@H](C)CC3)c12)C1CCC1 (stereo partly drawn) [Example 11.36, 3-{8-(2-tert-butylpyrrolidin-1-yl)-6-{[(1R)-1-cyclobutylethyl]amino}-7-[(trans-4-methylcyclohexyl)methyl]-7H-purin-2-yl}-1,2,4-oxadiazol-5(2H)-one] gave an IC50 of 3.93 nM.
Work on C[C@@H](Nc1nc(-c2noc(=O)[nH]2)nc2nc(N3CCCC3CC(C)(C)C)n(C[C@H]3CC[C@H](C)CC3)c12)C1CCC1 (stereo partly drawn) [Example 11.37, 3-(6-{[(1R)-1-cyclobutylethyl]amino}-8-[2-(2,2-dimethylpropyl)pyrrolidin-1-yl]-7-[(trans-4-methylcyclohexyl)methyl]-7H-purin-2-yl)-1,2,4-oxadiazol-5(2H)-one] yielded an IC50 of 6.98 nM.
